From PMC6204718, “GCDB: a glaucomatous chemogenomics database for in silico drug discovery” (Database: The Journal of Biological Databases and Curation, 2018)
Like-named read-outs stand apart in the source and are kept apart here.

Legend:
human A3AR = target: T1, human A3AR (Homo sapiens, UniProt P0DMS8); test: A3AR cell-based functional assay (A3AR-mediated cAMP production, CHO-ADORA3 cells); settings: for IC50: target A3AR, cAMP level of ADORA3-CHO cells elicited by NECA
T1 construct: host or cells: CHO-K1 (CHO-ADORA3)
T1 sequence (P0DMS8 1-318): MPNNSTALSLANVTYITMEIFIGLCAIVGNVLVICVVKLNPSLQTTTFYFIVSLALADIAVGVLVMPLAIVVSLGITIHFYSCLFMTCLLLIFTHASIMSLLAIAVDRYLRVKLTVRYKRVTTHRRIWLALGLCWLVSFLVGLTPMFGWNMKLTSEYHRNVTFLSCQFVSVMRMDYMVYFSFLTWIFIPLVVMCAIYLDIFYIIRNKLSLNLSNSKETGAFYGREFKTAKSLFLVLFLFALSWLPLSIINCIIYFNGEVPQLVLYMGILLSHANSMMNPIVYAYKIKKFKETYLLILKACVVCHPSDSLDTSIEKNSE
Experimental: (§1) Pharmaron (Beijing) was commissioned to perform in vitro inhibition screening of hGR and A3AR.
The four test compounds were evaluated as A3AR antagonists by A3AR-mediated cAMP production in cell-based functional assays. CHO-ADORA3 cells in which the A3AR was transfected in engineered CHO-K1 cells (PerkinElmer) to express the human A3AR were employed. The cells were collected by centrifugation and resuspended with Hank’s Buffered Saline Solution, 5 mM 4-(2-hydroxyethyl)-1-piperazineethanesulfonic acid (HEPES), 0.1% bovine serum albumin (BSA) stabilizer (pH 7.4) and 10 μM Rolipram. 2000 cells per well were added to 384 wells solid white plate. Test compounds were prepared with DMSO in 3-fold serial dilutions of 11 concentrations and dispensed to assay plates. Each compound was tested within the range of 1.69 × 10^-3–100 μM. The serial dilutions of adenosine-5′-N-ethyluronamide (NECA, 10 nl/well) was transferred to 384 wells and incubated at room temperature for 30 min. A LANCE cAMP 384 kit (Perkin Elmer, USA) was used to measure the intracellular cAMP levels. Forskolin (1 μM) was used to stimulate adenylyl cyclase activity and induce cAMP production. NECA and VUF-5574 were used as reference compounds.

[1] = target: T2, human glucocorticoid receptor (hGR) (Homo sapiens, UniProt P04150); test: hGR reporter gene assay (GR-GAL4 chimeric receptor, antagonist mode); type: cell-based
T2 construct: expressed in transfected cells; host or cells: HEK293T
T2 sequence (P04150 524-758 limits assumed): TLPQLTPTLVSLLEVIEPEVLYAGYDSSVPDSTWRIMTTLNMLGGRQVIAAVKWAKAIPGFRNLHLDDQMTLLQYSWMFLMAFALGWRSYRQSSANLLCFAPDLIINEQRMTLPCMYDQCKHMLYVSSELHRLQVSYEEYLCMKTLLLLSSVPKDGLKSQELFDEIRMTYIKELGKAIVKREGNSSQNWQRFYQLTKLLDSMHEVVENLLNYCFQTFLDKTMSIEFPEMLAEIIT
Description: as §1
The coding sequence of hGR ligand-binding domain was inserted into the pBIND expression vector (Promega, E1581) to express GR-GAL4 binding domain chimeric receptors. The expression vector and reporter vector were co-transfected into HEK293T host cells. The principle of the assay is that once the agonist binds to the corresponding GR-GAL4 chimeric receptor, the reporter gene is activated after binding of the chimeric receptor to the GAL4 binding sites. When the antagonist and agonist are in the system, the antagonist will compete with the agonist for binding to the GR-GAL4 chimeric receptor, inhibiting the reporter gene. Cyproterone was used as a positive control. All six test compounds were prepared in dimethyl sulfoxide (DMSO) at 10 mM and further diluted. Each compound was added to wells at final concentrations of 100 μM, 50 μM, 16.67 μM, 5.56 μM, 1.85 μM, 0.62 μM, 0.21 μM, 0.07 μM, 0.02 μM, 0.008 μM and 0.003 μM.

[2] = read-out: IC50 (half-maximal inhibitory concentration)
[3] = target GR, GR-GAL4 reporter gene assay in HEK293T cells, read-out: IC50 (half-maximal inhibitory concentration)

CC(=O)Nc1ccc(S(=O)(=O)Nc2cc(C(F)(F)F)cc(C(F)(F)F)c2)cc1 [A3-1] was tested, and the IC50 (human A3AR; [2]) was > 10 µM.

In the case of NC(=O)c1nnc2cc(-c3ccccc3)nn2c1-c1ccccc1Cl [A3-2], the IC50 (human A3AR; [2]) is reported as > 10 µM.

Molecule O/N=C/c1cn(-c2ccccc2)nc1-c1ccccc1 [A3-3] has an LE value (human A3AR; ligand efficiency based on IC50, 20 heavy atoms) of 0.36 kcal/mol and an IC50 (human A3AR; [2]) of 6.15 µM.

In the case of CC1(O)CCC2C3CCC4=CC(=O)CCC4C3CCC21C (centres unmarked) [A3-4], the IC50 (human A3AR; IC50 (half-maximal inhibitory concentration)) is reported as > 10 µM.

With CC(=O)OC1CCC2(C)C(=CCC3C2CCC2(C)C(OC(=O)c4ccccc4)CCC32)C1 (centres unmarked) [GR-1] the IC50 [1] was 28.4 µM.

C#CC1(O)CCC2C3CCc4cc(Oc5ccc([N+](=O)[O-])cc5)ccc4C3CCC21C (centres unmarked) [GR-2] showed an IC50 [1, 3] of 2.92 µM.

CC(=O)C1(O)CCC2C3CCC4(C)CC(=O)CCC4(C)C3C(=O)CC21C (centres unmarked) [GR-3] was tested, and the IC50 [1, 3] was 27 µM.

For Cc1nnc(SCC(=O)Nc2ccc(S(N)(=O)=O)cc2)c2nn(-c3ccccc3)c(C)c12 [GR-4], the IC50 [1, 3] was 23.5 µM.

Work on O=S(=O)(Nc1cccc(-c2nc3ccccc3s2)c1)c1ccc(F)c(Cl)c1 [GR-5] yielded an IC50 [1, 3] of 18 µM.

CC(=O)OCC(=O)C1(OC(C)=O)CCC2C3CCC4=CC(=O)C=CC4(C)C3C(=O)CC21C (centres unmarked) [GR-6] was tested, and the IC50 [1, 3] was 8.6 µM.
